From patent US9271953B2, “Methods for correction of organ dysfunction” (priority 2013, dated 2016)
“Also recorded” adds a separate entry of the source.

Experiments:
[1] = tested on: post-ganglionic nicotinic acetylcholine receptors; test: Oral single agents in patients with damaged pre-ganglionic vagus nerve: organ function; type: in vivo, human
From the text: In one embodiment of the invention, transdermal (topical) application of nicotine, applied near the lower right-hand corner of the abdomen stimulates the post-ganglionic nicotinic acetylcholinergic receptor controlling the ileocecal valve, for example, allowing the valve to open. Oral nicotine, however, is ineffective at stimulating the post-ganglionic nicotinic acetylcholinergic nerves in the abdomen, yet it exposes the patient to the direct (and negative) effect on the cerebellum.^38 In numerous patients tested, oral physostigmine or Huperzine A (both inhibitors of acetylcholinesterase, and thus indirect stimulators of both nicotinic and muscarinic acetylcholine receptors) were not effective in stimulating organ function when the pre-ganglionic portion of the vagus nerve was damaged. It is clear that in addition to inhibitors of acetylcholinesterase, other ingredients are necessary to stimulate organ function in this patient population. […] It was only through extensive testing that the inventor was able to discover the proper range of oral ingredients which were effective in stimulating these post-ganglionic nerves.

[2] = tested on: post-ganglionic nicotinic acetylcholine receptors
From the text: Nicotine is a powerful nicotinic agonist found in the leaves of the tobacco plant (Nicotiana tabacum).

[3] = in vivo; cited from earlier work
[4] = tested on: patients with connective tissue disorders and/or autonomic dysfunction; test: Patient studies / case studies with the oral compound; type: in vivo, human; details: patients with organ malfunction secondary to poor vagus nerve function
Description: The composition and method of use of the present invention is also unique because it corrects for these numerous causes of dysfunction and includes ingredients in the quantities and form required to work around the genetic, vascular, and/or co-morbid components involved. IBS/gastroparesis/constipation was initially targeted. In patient studies, a response to medication (a bowel movement) occurred within 2-12 hours, without exception. Patients were identified with a mix of co-morbid conditions including chronic fatigue syndrome, fibromyalgia, joint hypermobility and autonomic dysfunction.
The present composition was provided to a number of patients having certain diagnosed diseases, as summarized in Table 1 above and suffering from a variety of medical conditions or symptoms associated with those diseases, again, as summarized above.

[5] = tested on: IGF-1; test: IGF-1 levels in Patient 1; type: in vivo, human; details: 2 units/day growth hormone, before compound
From the text: Not intending to be bound by theory, and in no way a limitation of the present invention, the invention (excluding nicotine) can be used to stimulate production of human growth hormone, often found to be low in chronic pain syndromes, including disorders of connective tissue, “POTS”, “Hyperadrenergic POTS” and fibromyalgia. Rather than treating the patients with exogenous growth hormone, the present invention instead treats the source of the low growth hormone levels (as measured via IGF-1). Growth hormone levels can then return to normal and dysregulation of the hypothalamic-pituitary-adrenal axis is normalized. […]
Patient 1: Diagnoses: joint hypermobility (judged by the Beighton Scale), autonomic dysfunction (patient failed the Tilt Table Test of autonomic function) and visual and auditory hallucinations, hypothermia. […] Their liver enzymes and kidney function began to show abnormal readings, and pain at the site of the ileocecal valve began to occur. […]

## CN1CCCC1c1cccnc1 (centres unmarked) [nicotine, Nicotine]
[1]; oral doses of nicotine
  opening the ileocecal valve, arresting gastroparesis/chronic constipation: ineffective
[1]; oral nicotine
  stimulating the post-ganglionic nicotinic acetylcholinergic nerves/receptors (organ function): ineffective; also recorded: not effective
[2]; Patient 1, 7 g transdermal nicotine
  skin side effects: intractable itching, redness, and skin welting
[2]; Patient 1, 7 g transdermal nicotine near the ileocecal valve
  ileocecal valve opening: opened the valve overnight
[2]; transdermal 3-21 mg, lower right-hand quadrant of abdomen
  reversal of chronic constipation, gastroparesis, dysmotility, ileocecal valve and Sphincter of Oddi dysfunction: time: usually within hours
[2]; transdermal 3-21 mg, patients with poor vagus nerve function, valve not physically damaged
  opening of the ileocecal valve: never failed to open the ileocecal valve
[3]
  lethal dosage: 60 mg

## C/C=C1\[C@H]2C=C(C)C[C@]1(N)c1ccc(=O)[nH]c1C2 [Huperzine A]
[1]; Patient 2, prescribed for mental fatigue
  response to medication: no response
[1]; oral, numerous patients tested
  stimulating organ function when the pre-ganglionic portion of the vagus nerve was damaged: not effective

## CC(=O)O[C@H](CC(=O)[O-])C[N+](C)(C)C [Acetyl-L-Carnitine]
[4]
  organ function when Acetyl-L-Carnitine was added to the compound: invariably achieved better organ function

## growth hormone: exogenous growth hormone, 2 units/day
[5]
  IGF-1 levels raised to the upper normal range: which it did
